Tests used:
[1] = tested on: Recalcitrant wounds; assay: Further trials of topical formulations F21 to F30, nine patients; assay type: in vivo, human; details: use of the component in the formulations compared to no use of it
Experimental: Topical formulations were prepared in aliquots using the following proportions—in F21, F22, and F27 to F30, the specified amounts of CBD and THCa were supplied in 2 ml of total oil volume; in F23 and F24, the specified amount of THCa was supplied in 2 ml of total oil volume and the specified amount of CBD was supplied in 4 ml of total oil volume; in F25 and F26, the specified amount of CBD was supplied in 3 ml of total oil volume:
Recalcitrant wounds of nine were treated with Formulations F21 to F30. Formulations F21, F23, F25, F27 and F29, compounded in a mixture of hyaluronic acid and aloe vera gel, were applied to wound beds. Formulations F22, F24, F26, F28 and F30, compounded in liposomal base, were applied to periwound areas. […]

[2] = tested on: integumentary wound; assay: General statements on tests of topical formulations on integumentary wounds; details: in vivo

Structure (SMILES): C=CC(C)(O)CCC=C(C)C (stereo not drawn) [linalool]
- more rapid closure of wounds (cm^2/day), average [1]: 3.8 times

Structure (SMILES): CCCCCc1cc2c(c(O)c1C(=O)O)[C@@H]1C=C(C)CC[C@H]1C(C)(C)O2 [THCa, tetrahydrocannabinolic acid]
- more rapid closure of wounds (cm^2/day), average [1]: 5.3 times
- wound healing effects compared with decarboxylated tetrahydrocannabinol (THC) [2]: better wound healing effects

Source: patent US20220401406A1, “TOPICAL FORMULATIONS AND INSTILLATES, KITS, AND METHODS FOR TREATING INT[…], AND USES THEREOF” (VinSan Therapeutics Inc., priority 2019, published 2022)
